Measured values taken from US20230242669A1, “ANTIBODY THAT BINDS ERBB-2 AND ERBB-3” (Merus N.V., priority 2014, published 2023).

Legend:
N87 cells = assay: HRG driven N87 proliferation assay; type: cell-based, human
Procedure: Upregulation of NRG1-β1 is a key resistance mechanism against HER2 targeted therapies (Wilson, 2012). […] N87 cells were cultured in RPMI 1640 supplemented with 10% heat inactivated FBS. For the proliferation assay subconfluent cell cultures of N87 cells were washed with PBS trypsinized and trypsin was inactivated by adding culture medium. Cells were washed twice in large volumes of assay medium (RPMI 1640 medium containing 0.05% BSA and 10 µg/ml Holo Transferrin). Antibodies were diluted in a semi-log titration that varied from 1-0.0001 µg/ml. Cells were added at a density of 10000 cells/well in the presence of 100 ng/ml final concentration of HRG. The cells were cultivated for 3 days at 37° C., 5% CO2, in 95% relative humidity. ALAMAR BLUE™ (INVITROGEN®) was added according to the manufacturer’s instructions and incubated for 6 hours at 37° C., 5% CO2, in 95% relative humidity in the dark. Fluorescence was measured at 550 nm excitation with 590 nm emission wavelength.
Upregulation of NRG 1-β1 is a key resistance mechanism against HER2 targeted therapies (Wilson, 2012). […] To this aim N87 cells were cultured in RPMI 1640 supplemented with 10% heat inactivated FBS. […] Fluorescence was measured at 550 nm excitation with 590 nm emission wavelength.

[1] = test system: human stem cell derived cardiomyocytes; assay: Cardiomyocyte viability under doxorubicin stress; type: cell-based; details: 3 µM doxorubicin, 10 ng/ml HRG; monospecific antibodies 68 nM
Procedure: Human stem cell derived cardiomyocytes (Pluriomics BV) were seeded at a concentration of 20.000 well in white flat-bottom assay plates (corning 655098). On day 5 of culture the medium was replaced for glucose and galactose free culture medium supplemented with 10 ng/ml HRG. On day 7 test antibodies were added in combination with doxorubicin (3 µM). Cell viability was assayed on day 9 using the Promega Cell titer Glo assay.

[2] = test system: HRG mediated phosphorylation in N87 and SKBR-3 cells; assay: PathScan RTK / intracellular signaling antibody arrays; type: cell-based, human; details: 5 nM antibody, 100 ng/ml HRG
Procedure: Cells of an exponentially grown culture were harvested and seeded in 6 well plates (3.75 ×10^6 cells for N87 and 1.5×10^6 cells for SKBR-3) in starvation medium (N87 cells: RPMI-1640, 0.05% BSA, 10 µg/ml Holo-transferrin; SKBR-3 cells: DMEM/F-12, 2 mM L-glutamine, 0.05% BSA, 10 µg/ml Holo-transferrin) and incubated incubated overnight at 37° C., 5% CO2, in 95% relative humidity. The next day, antibodies were added to a final concentration of 5 nM and cells were incubated for one hour at 37° C., 5% CO2, in 95% relative humidity. HRG was then added to a final concentration of 100 ng/ml. After 1, 3, 6 or 24 hours at 37° C., 5% CO2, in 95% relative humidity, plates were placed on ice, cells were washed twice with cold PBS. Subsequently 0.3 ml ice-cold lysis buffer was added (Cell signaling RTK # 9803 or IC # 7018) and cells were lysed for a minimum of 30 minutes on ice. Next, protein concentrations were measured using BCA (Pierce #23235). Protein concentrations were adjusted to 2 mg/ml with lysis buffer. Next, lysates were applied to PathScan RTK Signaling Antibody Arrays (Cell signaling #7949) or PathScan Intracellular Signaling Antibody Arrays. All incubations were performed with sealed wells on an orbital shaker at room temperature. Lysates (75 µl) were diluted 2 times to […] concentration with 75 µl Array Diluent Buffer supplemented with protease inhibitor cocktail and kept on ice. Array wells were blocked with 100 µl Array block buffer for 15 minutes. Block buffer was removed and Lysates were applied to the wells and allowed to incubate for 2 hours. Lysate was aspirated and wells were washed 4 times with 100 µl Wash buffer. Next, 100 µl detection antibody cocktail was added per well and incubated for 1 hour. Antibody cocktail was aspirated and wells were washed 4 times with 100 µl Wash buffer. 75 µl DYLIGHT80™ Streptavidin was added to each well. DYLIGHT80™ Streptavidin was aspirated and wells were washed 4 times with 100 µl Wash buffer. […] Spot fluorescence intensity was calculated using Image Studio software.

AKT in JIMT-1 tumors = assay: Phosphoprotein analysis of JIMT-1 tumors by Luminex; type: in vivo, mice
Procedure: Tumors were flash-frozen and processed to powder. Tumor lysates were prepared to a concentration of 50 mg tumor/mL using cold BioRad Lysis Buffer (supplemented with 0.4% BioRad Factor 1, 0.2% BioRad Factor 2, and 2 mM PMSF) to the frozen powder samples, incubated at 4° C. on a rocker for 60 minutes to ensure complete lysis. The samples were centrifuged at 4° C. for 10 minutes at 16000 × g, and aliquoted. Total protein was determined using the Biorad DC Protein Assay reagents according to manufacturer’s instructions. Luminex Assay: The JIMT-1 tumor lysate samples were processed and analyzed for: Total AKT AKT(Ser473) and AKT(Thr308using commercially available Luminex kits from Millipore (Cat # 48-618MAG (Lot No. 2532050), 46-645MAG (Lot No. 46645 M-1K). Each sample was tested in duplicate. Dilutions were prepared in sample diluent to load a target of approximately 25 µg protein per well for all total and phosphorylated analyte determinations. The Millipore kits were used according to the manufacturer’s specifications.

[3] = test system: HER2:HER3 signaling in JIMT-1 tumors; assay: VeraTag analysis of JIMT-1 tumors; type: in vivo, mice
Procedure: Next, samples were paraffin-embedded. Sections of 7 um in thickness were sliced with a microtome (LEICA) and placed on positively charged glass slides (VWR) with serial number labeled. Slides were air-dried for 30 min and then baked in a heated oven set at 60° C. Next samples were processed for different VeraTag analysis. Total HER2 analysis (HT2) according to U.S. Pat. Appl. No. 12/340,436, total HER3 analysis (H3T) according to U.S. Pat. No. 8,349,574; U.S. Pat. Appl. No. 2013/0071859 and finally HER2-HER3 heterodimer (H23D), HER3pY1289 (H3pY1289) and HER3-PI3 kinase (H3PI3K) according to Int′l Patent Appl. No. PCT/US2014/033208.

PB4188: bispecific HER2xHER3 IgG: HER2 arm MF3958, HER3 arm MF3178
Anti-proliferative activity on N87 (N87 cells; 100 ng/ml HRG): superior activity over anti-HER2 or anti-HER3 monoclonal antibodies
Anti-proliferative activity on N87 versus PG3178 (N87 cells; increasing HRG 0.04-39.5 nM): superior activity compared to the parental anti-HER3 monoclonal antibody
Cardiomyocyte viability (ATP) [1]: unaffected
ERK and S6 phosphorylation [2]: strong inhibition
HER2 phosphorylation [2]: does not inhibit phosphorylation of HER2
AKT phosphorylation ([2]; first 6H): completely blocks AKT phosphorylation
Akt expression in tumors compared to untreated tumors (AKT in JIMT-1 tumors; JIMT-1 tumors): increase in Akt expression
Phosphorylation of AKT in tumors (AKT in JIMT-1 tumors; after two-weekly and four-weekly dose): completely inhibited
Total HER2, HER3 or phosphorylated HER3 in tumors versus controls ([3]; 25 mg/kg): no difference
HER2:HER3 dimers in tumors versus untreated controls ([3]; 25 mg/kg, both dosing regimens): significant PB4188 mediated reduction in HER2:HER3 dimers
HER3-p85 (PI3K) in tumors versus untreated controls ([3]; 4H after dosing): significant reduction in HER3-p85 (PI3K)
